{"source": "patent US20060178342A1", "about": "“Hyaluronan as a cytotoxic agent, drug pre-sensitizer and chemo-sensitizer in the treatment of disease” (priority 2001, published 2006)", "key": {"MDA-MB-231": {"tested_on": "MDA-MB-231", "assay": "Breast cancer cell count assay (Coulter counter), HA ± adriamycin", "type": "cell-based, human", "protocol": "(§1) Cell lines MDA-MB-468, MDA-MB-435 and MDA-MB-231 were routinely grown and subcultured as a monolayer in 175 cm^2 culture flasks in Leibovitz L-15 Medium supplemented with 10% Foetal calf serum (FCS) and antibiotic/antimycotic reagents at 37° C. in humidity controlled incubator with 100% (v/v) air.\n(§2) For the tests, MDA MB-468, MDA MB-231 and MDA MB-435 cell line were grown in 90% Leibovitz L-15 medium supplemented with 10% FCS. When confluent the cultures were washed 1× in HBSS and trypsinised in 0.25% trypsin/0.05% EDTA. The cell suspensions were counted with an automated cell counter (ZM-2 Coulter Counter) by adding 15 mL saline+0.2 ml of cell suspension. • Cells were resuspended to a number of:\n(§3) The cells were plated into 48-well plates (1 cm^2 surface area) by adding 1 ml of cell suspension per well. • Cells were allowed to attach for 24 h, before the media was removed, monolayers washed. The test media was; growth media containing 0-1 μM adriamycin or 5-fluorouracil with or without the addition of 0-1 μM of HA (modal Mw 750,000).\n(§4) The cells were exposed to the several combinations of HA and drugs for different times and at different concentrations (Table 3).\n(§5) After the incubation and growth periods the cell monolayers were washed with HBSS and trypsinised in 0.25% trypsin/0.05% EDTA. The cell suspensions were counted with an automated cell counter (ZM-2 Coulter Counter) by adding 15 mL saline+0.2 ml of cell suspension. Results were expressed as % of no drug control which was calculated as: […]"}, "MDA-MB-435": {"tested_on": "MDA-MB-435", "assay": "Breast cancer cell count assay (Coulter counter), HA ± adriamycin", "type": "cell-based, human", "protocol": "as §1, §2, §3, §4, §5"}, "MDA-MB-468": {"tested_on": "MDA-MB-468", "assay": "Breast cancer cell count assay (Coulter counter), HA ± adriamycin", "type": "cell-based, human", "protocol": "as §1, §2, §3, §4, §5"}, "[1]": {"tested_on": "MDA-MB-468 human breast carcinoma xenografts", "assay": "6-week efficacy study of HA ± 5-FU in nude mouse xenografts", "type": "in vivo", "protocol": "From the results in Example 2 the carcinoma cell line MDA-MB-468 was selected as the cancer cell inoculant for the generation of any nude mouse human tumour xenografts. Cells were routinely grown and subcultured as a previously described in Example 2. For injection into mice, cells were grown to 100% confluency, trypsinised in 0.025% trypsin/0.01% EDTA solution, washed twice by centrifugation in a Beckman TJ-6 bench centrifuge at 400 gav for 10 min, counted using a Model-ZM Coulter counter and resuspended in serum-free Leibovitz L-15 medium at 1×10^8 cells/ml. […]\nIndividual injections of 5-FU were prepared according to individual mouse masses, with the aim of delivering 30 mg/kg 5-FU in 50 μl (equivalent to human therapeutic dose of 10.5 mg/kg for a mean body weight of 60 kg; Inaba et al, 1988). […] With this quantity of HA injected into the body, saturation kinetics would be observed for the period of the experimentation (Fraser et al, 1983). […]\nAnimals were weighed and tumour volumes measured on the day of treatment application for long term study. In the 6-week study animals were weighed and tumour volumes measured on a daily basis. […]\nTumour volume was monitored on a daily or weekly basis by caliper measurements and tumour volume calculated as previously described."}}, "note": "Entries after “also recorded” stand apart in the source; their conditions may differ.", "data": [{"substance": "hyaluronan [HA]", "values": [{"measurement": "Cytotoxic effect of HA, change in cell number", "setting": "MDA-MB-231; HA exposure 30 min 100 nM", "result": "−27", "unit": "%"}, {"measurement": "Cytotoxic effect of HA, change in cell number", "setting": "MDA-MB-231; HA exposure 30 min 1000 nM", "result": "−26", "unit": "%"}, {"measurement": "Cytotoxic effect of HA, change in cell number", "setting": "MDA-MB-231; HA exposure 1 h 100 nM", "result": "−21", "unit": "%"}, {"measurement": "Cytotoxic effect of HA, change in cell number", "setting": "MDA-MB-231; HA exposure 24 h 100 nM", "result": "−8", "unit": "%"}, {"measurement": "Cytotoxic effect of HA, change in cell number", "setting": "MDA-MB-231; HA exposure 3 days 100 nM", "result": "−23", "unit": "%"}, {"measurement": "Cytotoxic effect of HA, change in cell number", "setting": "MDA-MB-435; HA exposure 30 min 100 nM", "result": "−12", "unit": "%"}, {"measurement": "Cytotoxic effect of HA, change in cell number", "setting": "MDA-MB-435; HA exposure 30 min 500 nM", "result": 0}, {"measurement": "Cytotoxic effect of HA, change in cell number", "setting": "MDA-MB-435; HA exposure 1 h 100 nM", "result": "−4", "unit": "%"}, {"measurement": "Cytotoxic effect of HA, change in cell number", "setting": "MDA-MB-435; HA exposure 24 h 100 nM", "result": "−12", "unit": "%"}, {"measurement": "Cytotoxic effect of HA, change in cell number", "setting": "MDA-MB-435; HA exposure 3 days 100 nM", "result": "−22", "unit": "%"}, {"measurement": "Cytotoxic effect of HA, change in cell number", "setting": "MDA-MB-468; HA exposure 30 min 100 nM", "result": "−5", "unit": "%"}, {"measurement": "Cytotoxic effect of HA, change in cell number", "setting": "MDA-MB-468; HA exposure 30 min 500 nM", "result": "−22", "unit": "%"}, {"measurement": "Cytotoxic effect of HA, change in cell number", "setting": "MDA-MB-468; HA exposure 30 min 1000 nM", "result": "+2%"}, {"measurement": "Cytotoxic effect of HA, change in cell number", "setting": "MDA-MB-468; HA exposure 1 h 100 nM", "result": "+3%"}, {"measurement": "Cytotoxic effect of HA, change in cell number", "setting": "MDA-MB-468; HA exposure 24 h 100 nM", "result": "−5", "unit": "%"}, {"measurement": "Cytotoxic effect of HA, change in cell number", "setting": "MDA-MB-468; HA exposure 3 days 100 nM", "result": "−29", "unit": "%"}, {"measurement": "non-lymphoid metastasis (new tumours near primary tumour)", "setting": "[1]; 6-week study", "result": "significant reduction in non-lymphoid metastasis"}, {"measurement": "tumour mass at the end of the 6 week study, compared with other groups", "setting": "[1]; iv 12.5 mg/kg HA and/or 30 mg/kg 5-FU, 6 x 7 day cycles", "result": "significantly decreased the primary tumour mass; also recorded: reducing the primary tumour mass in comparison to the saline control"}]}]}
